For 43 compounds, MIC results are on record in patent US20170305943A1, “COMPOUNDS FOR THE TREATMENT OF BACTERIAL INFECTIONS” (priority 2014, published 2017).

≈ marks a conversion by molar mass, not a printed value. Some results are limits rather than exact numbers.

The assay deals with Clostridium difficile (Isolate ID ATCC 9689). The assay is described as follows: Bacterial Assay: Determination of Antibacterial Activity (MIC, broth microdilution or agar dilution). In kind it is cell-based. The conditions noted are these: Clostridioides difficile, ATCC9689, 48 h, read-out: C. difficile MIC Activity Range. The gist of the method:
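MICs were set by CLSI broth microdilution or agar dilution for anaerobes, read visually after 48 hours at 37° C. under anaerobic gas packs. Medium was reinforced clostridial medium with 0.1% defibrinated horse blood; values are binned as A ≦1.01, B >1.0-4.0, C >4.0-16 μg/mL.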
Background: Dilution methods test growth across graded concentrations, often in twofold steps.
On to `NC(=O)c1c(F)ccc(OCCCc2nc(-c3ccc(C(F)(F)F)cc3)cs2)c1F` [Compound 113, 2,6-difluoro-3-(3-{4-[4-(trifluoromethyl)phenyl]-1,3-thiazol-2-yl}propoxy)benzamide], for which the MIC fell in the range of 1 to 4 µg/mL (≈ 2.26 to 9.04 µM).

Turning to `NC(=O)c1c(F)ccc(OCCCc2nc(-c3ccc(OC(F)F)cc3)cs2)c1F` [Compound 114, 3-(3-{4-[4-(difluoromethoxy)phenyl]-1,3-thiazol-2-yl}propoxy)-2,6-difluorobenzamide], the MIC lay in the range of 1 to 4 µg/mL (≈ 2.27 to 9.08 µM).

For the compound `NC(=O)c1c(F)ccc(OCCCc2nc(-c3ccc(OC(F)(F)F)cc3)cs2)c1F` [Compound 115, 2,6-difluoro-3-(3-{4-[4-(trifluoromethoxy)phenyl]-1,3-thiazol-2-yl}propoxy)benzamide], the MIC fell in the range of 1 to 4 µg/mL (≈ 2.18 to 8.73 µM).

For `NC(=O)c1c(F)ccc(OCCCc2nc(-c3ccc(S(F)(F)(F)(F)F)cc3)cs2)c1F` [Compound 116, 2,6-difluoro-3-(3-{4-[4-(pentafluoro-lambda~6~- sulfanyl)phenyl]-1,3-thiazol-2-yl}propoxy)benzamide], the minimal inhibitory concentration (MIC) was 1 to 4 µg/mL (≈ 2 to 7.99 µM).

Take `NC(=O)c1c(F)ccc(OCCc2nc(-c3ccc(OC(F)(F)F)cc3)no2)c1F` [Compound 117, 2,6-difluoro-3-(2-{3-[4-(trifluoromethoxy)phenyl]-1,2,4-oxadiazol-5-yl}ethoxy)benzamide]: the MIC is less than 1.01 µg/mL.

As to `NC(=O)c1c(F)ccc(OCCc2nc(-c3ccc(S(F)(F)(F)(F)F)cc3)no2)c1F` [Compound 118, 2,6-difluoro-3-(2-{3-[4-(pentafluoro-lambda~6~- sulfanyl)phenyl]-1,2,4-oxadiazol-5-yl}ethoxy)benzamide], the MIC was less than 1.01 µg/mL.

In the case of `N/C(=N\O)c1c(F)ccc(OCc2nc(-c3ccc(OC(F)(F)F)cc3)ns2)c1F` [Compound 119, 2,6-difluoro-N′-hydroxy-3-({3-[4-(trifluoromethoxy)phenyl]-1,2,4-thiadiazol-5-yl}methoxy)benzenecarboximidamide], the MIC is 1 to 4 µg/mL (≈ 2.24 to 8.96 µM).

As for `NC(=O)c1c(F)ccc(OCc2nc(-c3ccc(S(F)(F)(F)(F)F)cc3)no2)c1F` [Compound 120, 2,6-difluoro-3-({3-[4-(pentafluoro-lambda~6~- sulfanyl)phenyl]-1,2,4-oxadiazol-5-yl}methoxy)benzamide], the MIC fell in the range of 4 to 16 µg/mL (≈ 8.75 to 35 µM).

In the case of `NC(=O)c1c(F)ccc(OCc2nc(-c3ccc(S(F)(F)(F)(F)F)cc3)co2)c1F` [Compound 121, 2,6-difluoro-3-({4-[4-(pentafluoro-lambda~6~- sulfanyl)phenyl]-1,3-oxazol-2-yl}methoxy)benzamide], the MIC lay in the range of 1 to 4 µg/mL (≈ 2.19 to 8.77 µM).

`NC(=O)c1c(F)ccc(NCc2nc(-c3ccc(C(F)(F)F)cc3)cs2)c1F` [Compound 122, 2,6-difluoro-3-[({4-[4-(trifluoromethyl)phenyl]-1,3-thiazol-2-yl}methyl)amino]benzamide]: the MIC is less than 1.01 µg/mL.

For the compound `CCCCCCCCCNc1ccc(F)c(C(N)=O)c1F` [Compound 123, 2,6-difluoro-3-(nonylamino)benzamide], the MIC lay in the range of 1 to 4 µg/mL (≈ 3.35 to 13.4 µM).

As to `NC(=O)c1c(F)ccc(OCCCOc2ccc(Cl)cc2)c1F` [Compound 124, 3-[3-(4-chlorophenoxy)propoxy]-2,6-difluorobenzamide], the MIC lay in the range of 1 to 4 µg/mL (≈ 2.93 to 11.7 µM).

Take `NC(=O)c1c(F)ccc(OCCCOc2ccc(C(F)(F)F)cc2)c1F` [Compound 125, 2,6-difluoro-3-{3-[4-(trifluoromethyl)phenoxy]propoxy}benzamide]: the MIC lay within 1 to 4 µg/mL (≈ 2.66 to 10.7 µM).

`NC(=O)c1c(F)ccc(OCCCCOc2ccc(Cl)cc2Cl)c1F` [Compound 137, 3-[4-(2,4-dichlorophenoxy)butoxy]-2,6-difluorobenzamide]: the MIC was less than 1.01 µg/mL.

For the compound `CCOC(=O)c1ccc(OCCCCOc2ccc(F)c(C(N)=O)c2F)cc1` [Compound 138, ethyl 4-[4-(3-carbamoyl-2,4-difluorophenoxy)butoxy]benzoate], the MIC was less than 1.01 µg/mL.

On to `NC(=O)c1c(F)ccc(OCCCCOc2ccccc2Cl)c1F` [Compound 139, 3-[4-(2-chlorophenoxy)butoxy]-2,6-difluorobenzamide], for which the MIC lay in the range of 4 to 16 µg/mL (≈ 11.2 to 45 µM).

Consider `NC(=O)c1c(F)ccc(OCCCCOc2cccc(Cl)c2)c1F` [Compound 140, 3-[4-(3-chlorophenoxy)butoxy]-2,6-difluorobenzamide], for which the MIC was 1 to 4 µg/mL (≈ 2.81 to 11.2 µM).

As for `NC(=O)c1c(F)ccc(OCCCCOc2ccc(C(F)(F)F)cn2)c1F` [Compound 141, 2,6-difluoro-3-(4-{[5-(trifluoromethyl)pyridin-2-yl]oxy}butoxy)benzamide], the MIC was less than 1.01 µg/mL.

Regarding `NC(=O)c1c(F)ccc(OCCCCNc2ccc(Cl)cc2)c1F` [Compound 142, 3-{4-[(4-chlorophenyl)amino]butoxy}-2,6-difluorobenzamide], the MIC was in the range of 1 to 4 µg/mL (≈ 2.82 to 11.3 µM).

`NC(=O)c1c(F)ccc(OCCCCOc2ccc(Cl)cn2)c1F` [Compound 143, 3-{4-[(5-chloropyridin-2-yl)oxy]butoxy}-2,6-difluorobenzamide]: the MIC was less than 1.01 µg/mL.

As to `NC(=O)c1c(F)ccc(OCCCCOc2ccc(C(F)(F)F)nc2)c1F` [Compound 144, 2,6-difluoro-3-(4-{[6-(trifluoromethyl)pyridin-3-yl]oxy}butoxy)benzamide], the MIC was in the range of 1 to 4 µg/mL (≈ 2.56 to 10.2 µM).

Consider `NC(=O)c1c(F)ccc(OCCOCCOc2ccc(OC(F)(F)F)cc2)c1F` [Compound 145, 2,6-difluoro-3-(2-{2-[4-(trifluoromethoxy)phenoxy]ethoxy}ethoxy) benzamide], for which the MIC is less than 1.01 µg/mL.

In the case of `NC(=O)c1c(F)ccc(OCCOCCOc2ccc(C(F)(F)F)cc2)c1F` [Compound 146, 2,6-difluoro-3-(2-{2-[4-(trifluoromethyl)phenoxy]ethoxy}ethoxy) benzamide], the MIC was less than 1.01 µg/mL.

On to `NC(=O)c1c(F)ccc(OCCCCNc2ccc(C(F)(F)F)cc2)c1F` [Compound 147, 2,6-difluoro-3-(4-{[4-(trifluoromethyl)phenyl]amino}butoxy) benzamide], for which the MIC was in the range of 1 to 4 µg/mL (≈ 2.58 to 10.3 µM).

On to `NC(=O)c1c(F)ccc(OCCCCNc2ccc(OC(F)(F)F)cc2)c1F` [Compound 148, 2,6-difluoro-3-(4-{[4-(trifluoromethoxy)phenyl]amino}butoxy) benzamide], for which the MIC is less than 1.01 µg/mL.

As to `NC(=O)c1c(F)ccc(OCCCCOc2ccc(OC(F)F)cc2)c1F` [Compound 149], the MIC was less than 1.01 µg/mL.

For `NC(=O)c1c(F)ccc(NCCCCOc2ccc(OC(F)(F)F)cc2)c1F` [Compound 150, 2,6-difluoro-3-({4-[4-(trifluoromethoxy)phenoxy]butyl}amino) benzamide], the MIC lay within 1 to 4 µg/mL (≈ 2.47 to 9.89 µM).

For `NC(=O)c1c(F)ccc(OCCCCOc2ccccc2)c1F` [Compound 151, 2,6-difluoro-3-(4-phenoxybutoxy)benzamide], the MIC lay within 1 to 4 µg/mL (≈ 3.11 to 12.4 µM).

Take `NC(=O)c1c(F)ccc(OCCCCSc2ccc(Cl)cc2)c1F` [Compound 153, 3-{4-[(4-chlorophenyl)thio]butoxy}-2,6-difluorobenzamide]: the MIC was less than 1.01 µg/mL.

On to `COc1ccc(OCCCCOc2ccc(F)c(C(N)=O)c2F)cc1` [Compound 154, 2,6-difluoro-3-[4-(4-methoxyphenoxy)butoxy]benzamide], for which the MIC lay within 1 to 4 µg/mL (≈ 2.85 to 11.4 µM).

For `NC(=O)c1c(F)ccc(OCCOCCOc2ccc(C(F)(F)F)cn2)c1F` [Compound 156, 2,6-difluoro-3-[2-(2-{[5-(trifluoromethyl)pyridin-2-yl]oxy}ethoxy)ethoxy]benzamide], the MIC is 1 to 4 µg/mL (≈ 2.46 to 9.84 µM).

With `NC(=O)c1c(F)ccc(SCCCCOc2ccc(OC(F)(F)F)cc2)c1F` [Compound 157, 2,6-difluoro-3-({4-[4-(trifluoromethoxy)phenoxy]butyl}thio)benzamide], the MIC lay in the range of 1 to 4 µg/mL (≈ 2.37 to 9.49 µM).

Consider `NC(=O)c1c(F)ccc(OCCCCOc2ccc(C(F)(F)F)nn2)c1F` [Compound 158, 2,6-difluoro-3-(4-{[6-(trifluoromethyl)pyridazin-3-yl]oxy}butoxy)benzamide], for which the MIC was in the range of 4 to 16 µg/mL (≈ 10.2 to 40.9 µM).

Take `NC(=O)c1c(F)ccc(OCCCCOc2ccc(F)cc2F)c1F` [Compound 162, 3-[4-(2,4-difluorophenoxy)butoxy]-2,6-difluorobenzamide]: the MIC was in the range of 1 to 4 µg/mL (≈ 2.8 to 11.2 µM).

As for `NC(=O)c1c(F)ccc(OCCCCOc2ccc(OC(F)(F)F)c(Br)c2)c1F` [Compound 163, 3-{4-[3-bromo-4-(trifluoromethoxy)phenoxy]butoxy}-2,6-difluorobenzamide], the MIC is less than 1.01 µg/mL.

Regarding `NC(=O)c1c(F)ccc(OCCCCOc2ccc(OC(F)(F)F)c(Cl)c2)c1F` [Compound 164, 3-{4-[3-chloro-4-(trifluoromethoxy)phenoxy]butoxy}-2,6-difluorobenzamide], the MIC is less than 1.01 µg/mL.

With `NC(=O)c1c(F)ccc(OCCCCOc2cccc(C(F)(F)F)c2)c1F` [Compound 165, 2,6-difluoro-3-{4-[3-(trifluoromethyl)phenoxy]butoxy}benzamide], the MIC was 1 to 4 µg/mL (≈ 2.57 to 10.3 µM).

As to `NC(=O)c1c(F)ccc(OCCCCOc2cccc(OC(F)(F)F)c2)c1F` [Compound 166, 2,6-difluoro-3-{4-[3-(trifluoromethoxy)phenoxy]butoxy} benzamide], the MIC is less than 1.01 µg/mL.

As for `NC(=O)c1c(F)ccc(OCCCCOc2cccc(F)c2)c1F` [Compound 167, 2,6-difluoro-3-[4-(3-fluorophenoxy)butoxy] benzamide], the MIC fell in the range of 1 to 4 µg/mL (≈ 2.95 to 11.8 µM).

For `NC(=O)c1c(F)ccc(OCCCCOc2ccc(F)cc2)c1F` [Compound 168, 2,6-difluoro-3-[4-(4-fluorophenoxy)butoxy] benzamide], the MIC lay in the range of 1 to 4 µg/mL (≈ 2.95 to 11.8 µM).

Regarding `NC(=O)c1c(F)ccc(OCCCCOc2ccc(Cl)c(C(F)(F)F)c2)c1F` [Compound 169, 3-{4-[4-chloro-3-(trifluoromethyl)phenoxy]butoxy}-2,6-difluorobenzamide], the MIC is less than 1.01 µg/mL.

For the compound `NC(=O)c1c(F)ccc(OCCCCOc2ccc(F)c(F)c2)c1F` [Compound 170, 3-[4-(3,4-difluorophenoxy)butoxy]-2,6-difluorobenzamide], the MIC is 1 to 4 µg/mL (≈ 2.8 to 11.2 µM).

Consider `NC(=O)c1c(F)ccc(OCCCCOc2ccc(Cl)c(Cl)c2)c1F` [Compound 171, 3-[4-(3,4-dichlorophenoxy)butoxy]-2,6-difluorobenzamide], for which the MIC was less than 1.01 µg/mL.

What is called MIC is the lowest concentration found to suppress growth.
